What follows are molecules tested against BTK (Homo sapiens, UniProt Q06187) (assay: biochemical). Conditions: read-out: BTK inhibition (%).
Chain of BTK (Q06187 402-655 limits assumed): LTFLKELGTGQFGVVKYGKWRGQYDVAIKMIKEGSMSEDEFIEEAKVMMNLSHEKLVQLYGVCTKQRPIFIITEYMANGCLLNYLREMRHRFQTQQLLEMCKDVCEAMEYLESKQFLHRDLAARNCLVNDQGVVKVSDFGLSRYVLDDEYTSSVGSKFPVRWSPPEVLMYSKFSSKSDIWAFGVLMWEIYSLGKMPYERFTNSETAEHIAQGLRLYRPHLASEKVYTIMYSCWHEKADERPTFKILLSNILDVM
For `C[C@]12CCC(=O)C(O)=C1CC[C@@H]1[C@@H]2CC[C@]2(C)C(=O)CC[C@@H]12` [PCM-0214668], the inhibition at 10 µM was -1.4%.

Same assay, conditions: read-out: BTK inhibition (%), 0.75 uM BTK, […] probe 3l, 15 min preincubation
For `CC(=O)O[C@H]1C(=O)[C@@]2(C)[C@H]([C@H](OC(=O)c3ccccc3)[C@]3(O)C[C@H](OC(=O)[C@H](O)[C@@H](NC(=O)c4ccccc4)c4ccccc4)C(C)=C1C3(C)C)[C@]1(OC(C)=O)CO[C@@H]1C[C@@H]2O` [PCM-0214601], the inhibition at 10 µM was -17.9%. With `CC(C)(C)OC(=O)N[C@H]1CCCCC/C=C\[C@@H]2C[C@@]2(C(=O)NS(=O)(=O)C2CC2)NC(=O)[C@@H]2C[C@@H](OC(=O)N3Cc4cccc(F)c4C3)CN2C1=O` [PCM-0214602] the inhibition at 10 µM was -12.5%. `CC(C)c1nc(CN(C)C(=O)N[C@H](C(=O)N[C@@H](Cc2ccccc2)C[C@H](O)[C@H](Cc2ccccc2)NC(=O)OCc2cncs2)C(C)C)cs1` [PCM-0214603] showed an inhibition at 10 µM of -19.5%. `C[C@]12CC[C@@H]3c4ccc(O)cc4C[C@@H](CCCCCCCCC[S+]([O-])CCCC(F)(F)C(F)(F)F)[C@H]3[C@@H]1CC[C@@H]2O` (stereo partly shown) [PCM-0214604] gave an inhibition at 10 µM of 15.6%. `C=C1C[C@@H]2[C@H](CC[C@]3(C)C(=O)CC[C@@H]23)[C@@]2(C)C=CC(=O)C=C12` [PCM-0214605] was tested, and the inhibition at 10 µM was -6.9%. In the case of `C[C@]12C=CC(=O)N[C@@H]1CC[C@@H]1[C@@H]2CC[C@]2(C)[C@@H](C(=O)Nc3cc(C(F)(F)F)ccc3C(F)(F)F)CC[C@@H]12` [PCM-0214606], the inhibition at 10 µM is reported as -4.7%. For `COc1cc2c(cc1O)CC[C@@H]1[C@@H]2CC[C@]2(C)[C@@H](O)CC[C@@H]12` [PCM-0214607], the inhibition at 10 µM was -2.8%. Work on `CC[C@@H]([C@H](C)O)n1ncn(-c2ccc(N3CCN(c4ccc(OC[C@@H]5CO[C@@](Cn6cncn6)(c6ccc(F)cc6F)C5)cc4)CC3)cc2)c1=O` [PCM-0214608] yielded an inhibition at 10 µM of 4.7%. For `CCCC1O[C@@H]2C[C@H]3[C@@H]4CCC5=CC(=O)C=C[C@]5(C)[C@H]4[C@@H](O)C[C@]3(C)[C@]2(C(=O)CO)O1` (stereo partly shown) [PCM-0214610], the inhibition at 10 µM was -13.1%. Work on `CC(=O)O[C@]1(C(C)=O)CC[C@H]2[C@@H]3C=C(C)C4=CC(=O)CC[C@]4(C)[C@H]3CC[C@@]21C` [PCM-0214613] yielded an inhibition at 10 µM of -4.8%. Work on `C=C1C(=O)O[C@@H]2/C=C(\C)CC/C=C(\C)CC[C@@H]12` [PCM-0214614] yielded an inhibition at 10 µM of 46.7%. With `C[C@@H]1C(=O)O[C@H]2[C@@H](O)[C@@]34[C@H]5C[C@@H](C(C)(C)C)[C@]36[C@@H](OC(=O)[C@@H]6O)O[C@@]4(C(=O)O5)[C@@]12O` [PCM-0214615] the inhibition at 10 µM was 16.3%. `C#C[C@]1(O)C=C[C@H]2[C@@H]3CCC4=CC(=O)CC[C@@H]4[C@H]3CC[C@@]21CC` [PCM-0214616] gave an inhibition at 10 µM of 3.1%. Work on `C[C@]12CCC(=O)C=C1[C@@H]1C[C@@H]1[C@H]1[C@@H]3[C@@H]4C[C@@H]4[C@@]4(CCC(=O)O4)[C@@]3(C)CC[C@@H]12` [PCM-0214617] yielded an inhibition at 10 µM of -15.6%. `Cc1cccc(C)c1OCC(=O)N[C@@H](Cc1ccccc1)[C@@H](O)C[C@H](Cc1ccccc1)NC(=O)[C@H](C(C)C)N1CCCNC1=O` [PCM-0214618] showed an inhibition at 10 µM of -21.8%. With `C=CC[N+]1([C@H]2C[C@H]3[C@@H]4CC[C@H]5C[C@H](O)[C@@H](N6CCOCC6)C[C@]5(C)[C@H]4CC[C@]3(C)[C@H]2OC(C)=O)CCCC1` [PCM-0214619] the inhibition at 10 µM was -24.1%. For `CC(C)OC(=O)OCOP(=O)(CO[C@H](C)Cn1cnc2c(N)ncnc21)OCOC(=O)OC(C)C` [PCM-0214620], the inhibition at 10 µM was -14.8%. `CN(C)c1cc(NC(=O)CNC(C)(C)C)c(O)c2c1C[C@H]1C[C@H]3[C@H](N(C)C)C(=O)C(C(N)=O)=C(O)[C@@]3(O)C(=O)C1=C2O` [PCM-0214621] gave an inhibition at 10 µM of 32.7%. `C[C@]12CC[C@H]3[C@@H](CC[C@@]45O[C@@H]4C(O)=C(C#N)C[C@]35C)[C@@H]1CC[C@@H]2O` [PCM-0214622] showed an inhibition at 10 µM of 13.2%. `C[C@@H](c1ncncc1F)[C@](O)(Cn1cncn1)c1ccc(F)cc1F` [PCM-0214624] showed an inhibition at 10 µM of 2.3%. In the case of `NS(=O)(=O)Cc1noc2ccccc12` [PCM-0214625], the inhibition at 10 µM is reported as -14.8%. `C=C1/C(=C\C=C2/CCC[C@]3(C)[C@@H]([C@H](C)/C=C/[C@H](C)C(C)C)CC[C@@H]23)C[C@@H](O)C[C@@H]1O` [PCM-0214626] gave an inhibition at 10 µM of 4.1%. `CCN1CCN(Cc2ccc(-c3cc4c(N[C@H](C)c5ccccc5)ncnc4[nH]3)cc2)CC1` [PCM-0214628] showed an inhibition at 10 µM of 41.4%. For `C[C@H]1C[C@H]2[C@@H]3CCC4=CC(=O)C=C[C@]4(C)[C@@]3(F)[C@@H](O)C[C@]2(C)[C@@]1(O)C(=O)CO` [PCM-0214629], the inhibition at 10 µM was -6.2%. Work on `CN1CC(=O)N2[C@H](c3ccc4c(c3)OCO4)c3[nH]c4ccccc4c3C[C@@H]2C1=O` [PCM-0214630] yielded an inhibition at 10 µM of -6.2%. For `NC(=O)c1cccc2[nH]c(-c3ccc([C@@H]4CCCN4)cc3F)nc12` [PCM-0214633], the inhibition at 10 µM was 17.1%. `C[C@@H]1[C@H](O)[C@@H](C)/C=C/C=C/C=C/C=C/C=C/C=C/C=C/[C@H](O[C@@H]2O[C@H](C)[C@@H](O)[C@H](N)[C@@H]2O)C[C@@H]2O[C@](O)(C[C@@H](O)C[C@@H](O)[C@H](O)CC[C@@H](O)C[C@@H](O)CC(=O)O[C@H]1C)C[C@H](O)[C@H]2C(=O)O` [PCM-0214634] was tested, and the inhibition at 10 µM was -3.1%. With `CC[C@H]1OC(=O)[C@H](C)[C@@H](O[C@H]2C[C@@](C)(OC)[C@@H](O)[C@H](C)O2)[C@H](C)[C@@H](O[C@@H]2O[C@H](C)C[C@H](N(C)C)[C@H]2O)[C@](C)(OC)C[C@@H](C)C(=O)[C@H](C)[C@@H](O)[C@]1(C)O` [PCM-0214635] the inhibition at 10 µM was 9.3%. Work on `CC1(C)S[C@@H]2[C@H](NC(=O)[C@H](N)c3ccccc3)C(=O)N2[C@H]1C(=O)O` [PCM-0214636] yielded an inhibition at 10 µM of -1.6%. Work on `CC(C)[C@H](O)C(=O)N[C@@H](C)C(=O)N[C@@H]1C(=O)N(C)CCc2ccccc21` [PCM-0214637] yielded an inhibition at 10 µM of -3.1%. Work on `COC(=O)[C@H]1[C@H]2C[C@@H]3c4[nH]c5cc(OC)ccc5c4CCN3C[C@H]2C[C@@H](OC(=O)c2cc(OC)c(OC)c(OC)c2)[C@@H]1OC` [PCM-0214638] yielded an inhibition at 10 µM of 35%. For `CO[C@H]1O[C@@H]2O[C@@]3(C)CC[C@H]4[C@H](C)CC[C@@H]([C@H]1C)[C@@]24OO3` [PCM-0214640], the inhibition at 10 µM was 3.1%. For `C[C@H](CCC(=O)O)[C@H]1CC[C@H]2[C@@H]3[C@@H](O)C[C@@H]4C[C@H](O)CC[C@]4(C)[C@H]3CC[C@]12C` [PCM-0214641], the inhibition at 10 µM was 24.1%. `C[C@@H]1CC[C@H]2[C@@H](C)C(=O)O[C@@H]3O[C@@]4(C)CC[C@@H]1[C@]32OO4` [PCM-0214642] was tested, and the inhibition at 10 µM was 8.6%. With `C[C@H]1[C@H](OC(=O)CCC(=O)O)O[C@@H]2O[C@@]3(C)CC[C@H]4[C@H](C)CC[C@@H]1[C@@]24OO3` [PCM-0214643] the inhibition at 10 µM was 6.2%. Molecule `C[C@]12CC[C@@H]3c4ccc(O)cc4CC[C@H]3[C@@H]1CCC2=O` [PCM-0214644] has an inhibition at 10 µM of -4.8%. For `O=C(N[C@H](CO)[C@H](O)c1ccc([N+](=O)[O-])cc1)C(Cl)Cl` [PCM-0214645], the inhibition at 10 µM was -8.6%. `C[C@]12CCC(=O)C=C1CC[C@@H]1[C@@H]2[C@@H](O)C[C@@]2(C)[C@H]1CC[C@]2(O)C(=O)CO` [PCM-0214647] was tested, and the inhibition at 10 µM was 12.4%. `CC1(C)O[C@@H]2C[C@H]3[C@@H]4CCC5=CC(=O)C=C[C@]5(C)[C@H]4[C@@H](O)C[C@]3(C)[C@]2(C(=O)CO)O1` [PCM-0214648] showed an inhibition at 10 µM of 4.8%. With `C[C@]12CC[C@@H]3c4ccc(O)cc4CC[C@H]3[C@@H]1CC[C@@H]2O` [PCM-0214649] the inhibition at 10 µM was 4.1%. `CO/N=C(\C(=O)N[C@@H]1C(=O)N2C(C(=O)OCOC(=O)C(C)(C)C)=C(/C=C\c3scnc3C)CS[C@H]12)c1csc(N)n1` [PCM-0214651] showed an inhibition at 10 µM of 28%. `CCC(C)(C)C(=O)O[C@H]1C[C@@H](C)C=C2C=C[C@H](C)[C@H](CC[C@@H]3C[C@@H](O)CC(=O)O3)[C@H]21` [PCM-0214653] gave an inhibition at 10 µM of -13.1%. `C[C@H](CCC(=O)O)[C@H]1CC[C@H]2[C@@H]3[C@H](O)C[C@@H]4C[C@H](O)CC[C@]4(C)[C@H]3CC[C@]12C` [PCM-0214654] showed an inhibition at 10 µM of 6.2%. With `CN=C(NC#N)NCCSCc1nc[nH]c1C` [PCM-0214655] the inhibition at 10 µM was -12.4%. `C[C@@H]1O[C@@H](OC[C@H]2O[C@@H](Oc3c(-c4ccc(OCCO)c(OCCO)c4)oc4cc(OCCO)cc(O)c4c3=O)[C@H](O)[C@@H](O)[C@@H]2O)[C@H](O)[C@H](O)[C@H]1O` [PCM-0214656] showed an inhibition at 10 µM of -19.5%. In the case of `C[C@H]1[C@H](C)CC[C@]2(C(=O)O)CC[C@]3(C)C(=CC[C@@H]4[C@@]5(C)CC[C@H](O)C(C)(C)[C@@H]5CC[C@]43C)[C@H]12` [PCM-0214657], the inhibition at 10 µM is reported as 10.9%. Work on `COC(=O)[C@@H]1[C@H]2C[C@H]3c4[nH]c5ccccc5c4CCN3C[C@@H]2CC[C@@H]1O` [PCM-0214658] yielded an inhibition at 10 µM of -21.8%. Work on `O=C[C@H](O)[C@@H](O)[C@H](O)CO` [PCM-0214661] yielded an inhibition at 10 µM of -12.5%. `C#C[C@]1(O)CC[C@H]2[C@@H]3CCc4cc(OC)ccc4[C@H]3CC[C@@]21C` [PCM-0214662] was tested, and the inhibition at 10 µM was 8.6%. Work on `C#C[C@]1(OC(C)=O)CC[C@H]2[C@@H]3CCC4=C[C@@H](OC(C)=O)CC[C@@H]4[C@H]3CC[C@@]21C` [PCM-0214663] yielded an inhibition at 10 µM of 2.3%. Molecule `CCCCCCOC(=O)NC(=N)c1ccc(NCc2nc3cc(C(=O)N(CCC(=O)OCC)c4ccccn4)ccc3n2C)cc1` [PCM-0214664] has an inhibition at 10 µM of -14%. `C[C@@H](O)[C@H]1C(=O)N2C(C(=O)OCOC(=O)C(C)(C)C)=C(SC3CN(C4=NCCS4)C3)[C@H](C)[C@H]12` [PCM-0214665] was tested, and the inhibition at 10 µM was 4.7%. Molecule `O=c1cc(-c2ccccc2)oc2cc(O)c(O)c(O)c12` [PCM-0214670] has an inhibition at 10 µM of 79.4%. Molecule `CCO[C@@H]1OC(=O)C[C@@H]1NC(=O)[C@@H]1CCCN1C(=O)[C@@H](NC(=O)c1ccc(N)c(Cl)c1)C(C)(C)C` [PCM-0214671] has an inhibition at 10 µM of -8.6%. `COc1c(O)cc2c(c1O)[C@@H]1O[C@H](CO)[C@@H](O)[C@H](O)[C@H]1OC2=O` [PCM-0214672] gave an inhibition at 10 µM of 7%. For `C[C@@H]1CC[C@H]2[C@@H](C)C(O)O[C@@H]3O[C@@]4(C)CC[C@@H]1[C@]32OO4` (stereo partly shown) [PCM-0214674], the inhibition at 10 µM was -20.2%. Work on `CC1(C)[C@@H](O)CC[C@]2(C)[C@H]3C(=O)C=C4[C@@H]5C[C@@](C)(C(=O)O)CC[C@]5(C)CC[C@@]4(C)[C@]3(C)CC[C@@H]12` [PCM-0214675] yielded an inhibition at 10 µM of 4.7%.

From paper PMC8041284, “Tunable Methacrylamides for Covalent Ligand Directed Release Chemistry” (Journal of the American Chemical Society, 2021)
